Measurements from patent publication US9079913B2, “Spiro-oxindole MDM2 antagonists” (The Regents of the University of Michigan, priority 2009, dated 2015).
Like-named read-outs stand apart in the source and are kept apart here.

Legend:
[1] = molecular target: recombinant human His-tagged MDM2 protein (residues 1-118) (Homo sapiens (Human), UniProt Q00987); test: Fluorescence-polarization MDM2 binding assay;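 note: fluorescence polarization read after three hours of incubation in potassium phosphate buffer containing bovine gamma globulin and Triton X-100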
recombinant human His-tagged MDM2 protein (residues 1-118), sequence (Q00987 1-118): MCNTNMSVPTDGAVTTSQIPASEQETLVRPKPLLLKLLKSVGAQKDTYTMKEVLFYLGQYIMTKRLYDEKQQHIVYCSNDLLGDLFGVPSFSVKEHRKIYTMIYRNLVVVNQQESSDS
Method: The assay was performed in the buffer: 100 mM potassium phosphate, pH 7.5; 100 μg/mL bovine gamma globulin; 0.02% sodium azide, 0.01% Triton X-100) and the polarization values were measured after 3 h of incubation using an ULTRA READER (Tecan U.S. Inc., Research Triangle Park, N.C.). […] The Kd value was calculated using the equation: Kd value=IC50−L0/2.
The polarization values were measured after 3 h of incubation. […] Curve fitting was performed using [sequence] PRISM software (GraphPad Software, Inc., San Diego, Calif.). […] Compounds shown in Tables 19A-D as the free base were tested either as the free base or as the CF3CO2H (TFA) or HCl salt.

[2] = system: Isogenic HCT-116 colon cancer cell lines; test: cells; assay type: cell-based; settings: Homo sapiens;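 note: cells grown in 96-well plates in McCoy's 5A medium with 10% FBS, exposed to compound for 4 days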
Method: Cells were seeded in 96-well flat bottom cell culture plates at a density of 2−3×10^3 cells/well with compounds and incubated for 4 days.

[3] = system: cancer cell lines with wild-type p53 / mutated or deleted p53 (ATCC); test: Cell growth assay (WST-8), other cancer cell lines; assay type: cell-based; settings: Homo sapiens
[4] = Table 19A, FP binding assay, read-out: MDM2 IC50
[5] = HCT-116, read-out: HCT-116 (p53-/-) IC50, Table 19A, HCT-116 p53-/-, cell growth
[6] = HCT-116, read-out: HCT-116 (p53 wild-type) IC50, Table 19A, HCT-116 p53 wild-type, cell growth
[7] = PC-3, Table 19A, PC-3 cells, deleted p53, cell growth, read-out: PC-3 (deleted p53) IC50
[8] = SJSA-1, Table 19A, SJSA-1 cells, p53 wild-type, cell growth, read-out: SJSA-1 (p53 wild-type) IC50
[9] = Table 19D, read-out: MDM2 Binding Affinities IC50
[10] = HCT-116, read-out: HCT116p53KO IC50, Table 19D, HCT116 p53KO
[11] = HCT-116, read-out: HCT116p53WT IC50, Table 19D, HCT116 p53WT
[12] = LNCaP, Table 19D, LNCaP cells, read-out: LNCaP IC50
[13] = PC-3, Table 19D, PC3 cells, read-out: PC3 IC50

SMILES	IC50 [1, 4] [nM]	IC50 [2, 5] [µM]	IC50 [2, 6] [µM]	IC50 [3, 7] [µM]	IC50 [3, 8] [µM]	IC50 [1, 9] [nM]	IC50 [2, 10] [µM]	IC50 [2, 11] [µM]	IC50 [3, 12] [µM]	IC50 [3, 13] [µM]	other results
C[C@@H](N)C(=O)OC1CCC(NC(=O)[C@@H]2N[C@H](CC(C)(C)C)[C@]3(C(=O)Nc4cc(Cl)ccc43)[C@H]2c2cccc(Cl)c2F)CC1 (stereo partly drawn) [MI-906]	< 1000	9.1	< 3	3.6	< 3						IC50 ([3]; LNCaP, Table 19A, LNCAP cells, p53 wild-type, cell growth, read-out: LNCAP (p53 wild-type) IC50): < 3 µM
CCC[C@H]1N[C@@H](C(=O)NCC[C@H](O)CO)[C@H](c2cccc(Cl)c2)[C@@]12C(=O)Nc1cc(Cl)c(F)cc12 [MI-702]											IC50 ([1]; Table 19B, read-out: Binding affinities to MDM2 protein as determined by FP based assay IC50): > 1000 nM; IC50 ([2]; HCT-116, read-out: Inhibition of cell growth IC50, HCT116 p53 KO, Table 19B, HCT116 p53 KO): 12.7 ± 2.3 µM; IC50 ([2]; HCT-116, read-out: Inhibition of cell growth IC50, HCT116 p53 WT, Table 19B, HCT116 p53 WT): 5.8 ± 1.7 µM; IC50 ([3]; LNCaP, Table 19B, LNCaP cells, read-out: Inhibition of cell growth IC50, LNCaP): 1.9 ± 0.3 µM; IC50 ([3]; PC-3, Table 19B, PC3 cells, read-out: Inhibition of cell growth IC50, PC3): 14.3 ± 2.9 µM
CC(=O)N1CCC(NC(=O)[C@@H]2N[C@H](CC(C)(C)C)[C@]3(C(=O)Nc4cc(Cl)ccc43)[C@H]2c2cccc(Cl)c2F)CC1 [MI-783]	< 500	18.5	0.9		1.1						
CN1[C@@H](C(=O)NCC[C@H](O)CO)[C@H](c2cccc(Cl)c2F)[C@@]2(C(=O)Nc3cc(F)c(F)cc32)[C@H]1CC(C)(C)C [MI-519-10-me]						< 10000	> 30	> 1	> 1	> 30	
CC(C)(C)C[C@H]1N[C@@H](C(=O)N[C@H]2C[C@@](C)(O)C2)[C@H](c2cccc(Cl)c2)[C@@]12C(=O)Nc1cc(F)c(F)cc12 [C035]	< 3000			> 10							
CC(C)(C)C[C@H]1N[C@@H](C(=O)NCC[C@H](O)CO)[C@H](c2cccc(F)c2)[C@@]12C(=O)Nc1cc(F)c(F)cc12 [MI-519-11]						> 5000	> 10	> 5	> 5	> 10	
